For orientation: IC50 means the concentration at which inhibition is half-maximal. For orientation: logP means the decadic logarithm of the partition coefficient of the neutral form, usually between octanol and water. Lower therefore signals lower lipophilicity. As a reminder, the solubility is the dissolved amount per volume that the medium holds.

≈ marks a conversion by molar mass, not a printed value. Calls of active or inactive are those of the source. No cut-off for these calls is given here.

These results are taken from ChEMBL document CHEMBL5634152, “The discovery of water-soluble indazole derivatives as potent microtubule polymerization inhibitors” (Eur J Med Chem, 2023).

The subject of data set [1] is A549. Put plainly: cells. The conditions noted are these: Homo sapiens.
Description: Antiproliferative activity against human A549 cells assessed as cell growth inhibition incubated for72 hrs by MTT assay
In a further data set the test system is T-24. Put plainly: cells. Conditions: Homo sapiens.
The next data set concerns Huh-7. The experiment in a line: cells. Conditions: Homo sapiens.
Data set [2] in a line: Lipophilicity, logP of compound in n-octanol-water at 5 mg/ml incubated for 8 hrs by HPLC analysis. The format is physicochemical.
Data set [3] in a line: Aqueous solubility of compound in pH 7.4 at 10 mg/ml by HPLC analysis. The format is physicochemical. The conditions noted are these: buffer, read-out: solubility.
The nature of data set [4]: Resistance index, ratio of IC50 for human A549/Taxol cells to IC50 for human A549 cells. The format is functional.
The subject of a further data set is A549/TR. Put plainly: Antiproliferative activity against human A549/Taxol cells assessed as cell growth inhibition incubated for72 hrs by MTT assay. In kind it is functional, cell-based. In general terms: Tetrazolium dyes change colour on reduction, which living cells bring about.
For data set [5], the system named is A549. Put plainly: Antitumor activity against human A549 cells xenografted in Balb/c nude mouse assessed as tumor growth inhibition at 25 mg/kg, IG qd for 21 days relative to control. In kind it is functional. Conditions: A549, po, 504 h, time 21 day, read-out: TGI. A general note: Xenograft models place foreign cells or tissue in a host animal.
For the next data set, the target named is Tubulin (Homo sapiens) (UniProt P68371+Q9H4B7+P0DPH7+P68366+Q13509+Q71U36+P04350+Q3ZCM7+P07437+P68363+Q9BQE3+Q6PEY2+Q13885+Q9BVA1+Q9BUF5). The experiment in a line: Binding affinity to tubulin polymerization at colchicine-binding site in human A549 cells assessed as N,N'-ethylene- bis(iodoacetamide)/beta-tubulin adduct formation at 5 to 25 uM incubated for 2 hrs by chemiluminescence based assay. In kind it is cell-based. The conditions noted are these: dose 5-25 µM.

Description for Huh-7: Antiproliferative activity against human Huh-7 cells assessed as cell growth inhibition incubated for72 hrs by MTT assay
Description for T-24: Antiproliferative activity against human T-24 cells assessed as cell growth inhibition incubated for72 hrs by MTT assay

Regarding `COc1cc(-c2ccc3c(C)nn(-c4ccc(OC(F)(F)F)cc4)c3c2)cc(OC)c1OC`, the IC50 in the data set with A549 [1] was 19500 nM; with T-24, more than 25000 nM; in the data set with Huh-7, more than 25000 nM.
With `COc1cc(-n2ncc3ccc(-c4cccc5[nH]ccc45)cc32)cc(OC)c1OC`, in data set [2], the logP at 8 h was determined as 3.1. For the same compound, the IC50 was determined as 25 nM in the data set with A549 [1], 30 nM with T-24, 28 nM in the data set on Huh-7 and 25 nM in the data set on A549/TR. The solubility in data set [3] worked out at 5.09 µg/mL (≈ 12.7 µM). The “Ratio IC50” value in data set [4] is listed as 1.
On to `COc1cc(-c2ccc3c(C)nn(-c4ccc5c(c4)CCO5)c3c2)cc(OC)c1OC`, for which the values for the IC50 with A549 [1], in the data set on T-24 and in the data set with Huh-7 were 5300 nM, 4820 nM and 1450 nM, respectively.
On the same counts, the results for `CCOc1ccc(-c2ccc3cnn(-c4cc(OC)c(OC)c(OC)c4)c3c2)cc1` are 1450 nM, 2280 nM and 3730 nM.
For `COc1ccc(-c2ccc3cnn(-c4cc(OC)c(OC)c(OC)c4)c3c2)cn1`, the results for the half-maximal inhibitory concentration (IC50) in the data set with A549 [1], in the data set with T-24 and in the data set with Huh-7 were 150 nM, 190 nM and 330 nM, respectively.
On the same counts, the results for `COc1ccc(-n2ncc3ccc(-c4cc(OC)c(OC)c(OC)c4)cc32)cn1` are more than 25000 nM, more than 25000 nM and more than 25000 nM.
For `COc1cc(-n2nc(C)c3ccc(-c4ccc(C)cc4)cc32)cc(OC)c1OC`, the IC50 with A549 [1] turned out to be 190 nM; in the data set on T-24, 140 nM; in the data set on Huh-7 it was 120 nM.
Take `COc1ccc(-n2nc(C)c3ccc(-c4cc(OC)c(OC)c(OC)c4)cc32)cn1`: the IC50 with A549 [1], with T-24 and in the data set with Huh-7 was more than 25000 nM each time.
`COc1ccc(-c2ccc3cnn(-c4cc(OC)c(OC)c(OC)c4)c3c2)cc1`: the figures for the IC50 in the data set on A549 [1], with T-24 and in the data set on Huh-7 were 92 nM, 110 nM and 100 nM, respectively.
As for `COc1cc(-n2ncc3ccc(-c4ccc(Cl)cc4)cc32)cc(OC)c1OC`, the IC50 was determined as 200 nM in the data set with A549 [1], 320 nM in the data set on T-24 and 150 nM in the data set on Huh-7.
`COc1cc(-c2ccc3cnn(-c4ccc(C)cc4)c3c2)cc(OC)c1OC`: the IC50 in the data set with A549 [1], in the data set on T-24 and with Huh-7 was more than 25000 nM each time.
Regarding `COc1cc(-n2ncc3ccc(-c4ccccc4)cc32)cc(OC)c1OC`, the IC50 with A549 [1] amounted to 52 nM; with T-24, 80 nM; in the data set with Huh-7, 42 nM.
As to `COc1ccc(-n2nc(C)c3ccc(-c4cc(OC)c(OC)c(OC)c4)cc32)cc1`, the IC50 with A549 [1], with T-24 and with Huh-7 was more than 25000 nM each time.
As for `COc1ccc2c(Nc3cc(OC)c(OC)c(OC)c3)n[nH]c2c1`, the logP at 8 h in data set [2] was 3.7. Besides, the IC50 with A549 [1] is 60 nM; in the data set on T-24, 130 nM; in the data set with Huh-7 it was 54 nM; with A549/TR it was 91 nM. Moreover, in the data set with A549 [5], the inhibition in vivo at 25 mg/kg worked out at 47.8%. Moreover, the solubility in [3] worked out at 3.48 µg/mL (≈ 10.6 µM). For the same compound, in data set [4], the “Ratio IC50” value is given as 1.5.
Regarding `COc1cc(-n2ncc3ccc(-c4ccc5[nH]ccc5c4)cc32)cc(OC)c1OC`, the 50% inhibitory concentration (IC50) worked out at 120 nM in the data set on A549 [1], 170 nM with T-24 and 140 nM in the data set with Huh-7.
For the compound `COc1ccc(-n2ncc3ccc(-c4cc(OC)c(OC)c(OC)c4)cc32)cc1`, the IC50 with A549 [1], in the data set on T-24 and in the data set with Huh-7 was more than 25000 nM in each case.
Consider `COc1cc2c(c(OC)c1OC)-c1ccc(OC)c(=O)cc1[C@@H](NC(C)=O)CC2` [COLCHICINE], for which the figures for the half-maximal inhibitory concentration (IC50) in the data set with T-24 and in the data set with Huh-7 were 46 nM and 24 nM, respectively.
Turning to `COc1cc(-n2ncc3ccc(-c4ccncc4)cc32)cc(OC)c1OC`, the IC50 is 15200 nM in the data set on A549 [1], 16400 nM in the data set with T-24 and 9220 nM in the data set with Huh-7.
For the compound `COc1cc(-n2ncc3ccc(-c4ccc(C)cc4)cc32)cc(OC)c1OC`, the IC50 with A549 [1] stood at 45 nM; in the data set on T-24 it was 92 nM; with Huh-7, 51 nM.
Regarding `COc1cc(-n2ncc3ccc(-c4ccc5c(c4)CCO5)cc32)cc(OC)c1OC`, the half-maximal inhibitory concentration (IC50) in the data set on A549 [1] worked out at 98 nM; with T-24, 110 nM; with Huh-7, 79 nM.
With `COc1ccc(-c2ccc3c(C)nn(-c4cc(OC)c(OC)c(OC)c4)c3c2)cn1`, the 50% inhibitory concentration (IC50) turned out to be 1510 nM in the data set with A549 [1], 2230 nM in the data set with T-24 and 1060 nM in the data set with Huh-7.
For `CC[C@]1(O)C[C@H]2CN(CCc3c([nH]c4ccccc34)[C@@](C(=O)OC)(c3cc4c(cc3OC)N(C=O)[C@H]3[C@@](O)(C(=O)OC)[C@H](OC(C)=O)[C@]5(CC)C=CCN6CC[C@]43[C@@H]65)C2)C1`, the outcome on Tubulin (Homo sapiens) was inactive.
As for `COc1cc(-n2ncc3ccc(-c4ccc5c(ccn5C)c4)cc32)cc(OC)c1OC`, the IC50 in the data set on A549 [1] stood at 63 nM; in the data set on T-24 it was 120 nM; with Huh-7 it was 73 nM.
On the same counts, the results for `COc1ccc(-c2ccc3c(C)nn(-c4cc(OC)c(OC)c(OC)c4)c3c2)cc1` are 490 nM, 280 nM and 110 nM.
On the same counts, the results for `COc1cc(-n2ncc3ccc(-c4ccc(F)cc4)cc32)cc(OC)c1OC` are 90 nM, 270 nM and 110 nM.
`COc1cc(-c2ccc3c(C)nn(-c4ccc(C)cc4)c3c2)cc(OC)c1OC`: the concentration for half-maximal inhibition (IC50) in the data set with A549 [1], in the data set with T-24 and in the data set with Huh-7 was more than 25000 nM in each case.
As to `CC(=O)O[C@H]1C(=O)[C@@]2(C)[C@H]([C@H](OC(=O)c3ccccc3)[C@]3(O)C[C@H](OC(=O)[C@H](O)[C@@H](NC(=O)c4ccccc4)c4ccccc4)C(C)=C1C3(C)C)[C@]1(OC(C)=O)CO[C@@H]1C[C@@H]2O` [PACLITAXEL], in data set [4], the “Ratio IC50” value stood at 403.8. In the data set with A549/TR, the IC50 was found to be 5650 nM.
